Data from patent US8859580B2 (Boehringer Ingelheim International GmbH, priority 2007, dated 2014).

molecular target: T1, 11β-HSD1 (Homo sapiens, UniProt P28845); assay: In vitro inhibition of 11β-HSD1, HTRF detection of cortisol generated from cortisone by human liver microsomes; format: biochemical; details: 11β-HSD IC50 (nM), 1 hour at 37° C., pH 6.0, NADPH 200 μM, cortisone 80 nM, inhibition relative to carbenoxolone signal
T1 construct: detecting cortisol generated from cortisterone by human liver microsomes; from tissue; host or cells: human liver microsomes
How it was run: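 Cortisol formed from cortisone by human liver microsomes quantified by competitive HTRF immunoassay (XL665-cortisol, Eu-cryptate anti-cortisol antibody), 2 h detection, Em665/Em615 ratio converted via cortisol calibration curve. Percent inhibition relative to carbenoxolone signal; IC50 from curves.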

T1 sequence (P28845 whole entry): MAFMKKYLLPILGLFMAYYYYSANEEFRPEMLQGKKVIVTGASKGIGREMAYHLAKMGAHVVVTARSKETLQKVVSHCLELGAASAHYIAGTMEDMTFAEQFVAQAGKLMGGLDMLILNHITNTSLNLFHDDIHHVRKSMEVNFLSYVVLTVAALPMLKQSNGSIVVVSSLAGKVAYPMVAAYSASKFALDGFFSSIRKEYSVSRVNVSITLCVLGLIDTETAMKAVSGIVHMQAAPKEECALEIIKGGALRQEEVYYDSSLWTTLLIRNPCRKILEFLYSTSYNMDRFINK

Compound | IC50 [nM]
CC1(C)[C@H]2Cc3ccccc3[C@]1(C)CCN2C(=O)c1ccc(N)nc1 [Example 304, (6-Amino-pyridin-3-yl)-[(2R,6S)-6,11,11-trimethyl-1,2,5,6-tetrahydro-4H-2,6-methano-benzo[d]azocin-3-yl)-methanone] | 251
Cc1nc2cc3c(cc2o1)[C@]1(C)CCN(C(=O)c2ccc4nc[nH]c4c2)[C@H](C3)[C@H]1C [Example 305, (3H-Benzoimidazol-5-yl)-[(6R,10R,12S)-5,6,7,8,9,10-hexahydro-2,10,12-trimethyl-6,10-methano-oxazolo[5,4-i][3]benzazocin 7-yl]-methanone] | 153
CC(C)(O)c1ccc(C(=O)N2CC[C@@]3(C)c4ccccc4C[C@@H]2C3(C)C)cc1 [Example 306, [4-(1-Hydroxy-1-methyl-ethyl)-phenyl]-[(2R,6S)-6,11,11-trimethyl-1,2,5,6-tetrahydro-4H-2,6-methano-benzo[d]azocin-3-yl]-methanone] | 978
CC(=O)c1cccc(C(=O)N2CC[C@@]3(C)c4ccccc4C[C@@H]2C3(C)C)c1 [Example 307, 1-{3-[(2R,6S)-6,11,11-Trimethyl-1,2,5,6-tetrahydro-4H-2,6-methano-benzo[d]azocine-3-carbonyl]-phenyl}-ethanone] | 979
CC1(C)C(=O)Nc2ccc(C(=O)N3CC[C@@]4(C)c5ccccc5C[C@@H]3C4(C)C)cc21 [Example 308, 3,3-Dimethyl-5-[(2R,6S)-6,11,11-trimethyl-1,2,5,6-tetrahydro-4H-2,6-methano-benzo[d]azocine-3-carbonyl]-1,3-dihydro-indol-2-one] | 210
CC12CCN(C(=O)c3ccc4[nH]cnc4c3)C(Cc3cccc(-c4cccnc4)c31)C2(C)C (stereo not shown) [Example 309, (1H-Benzoimidazol-5-yl)-(6,11,11-trimethyl-7-pyridin-3-yl-1,2,5,6-tetrahydro-4H-2,6-methano-benzo[d]azocin-3-yl)-methanone] | 184
C[C@@H]1[C@H]2Cc3cc4nc(C5CC5)oc4cc3[C@]1(C)CCN2C(=O)c1ccc2nc[nH]c2c1 [Example 311, (3H-Benzoimidazol-5-yl)-[(6R,10R,12S)-2-cyclopropyl-5,6,7,8,9,10-hexahydro-10,12-dimethyl-6,10-methano-oxazolo[5,4-i][3]benzazocin-7-yl]-methanone] | 424
CC(C)(C)c1nc2cc3c(cc2o1)C[C@H]1N(C(=O)c2ccc4nc[nH]c4c2)CC[C@]3(C)C1(C)C [Example 312, (3H-Benzoimidazol-5-yl)-[(6R,10S)-2-tert-butyl-5,6,7,8,9,10-hexahydro-10,12,12-trimethyl-6,10-methano-oxazolo[4,5-i][3]benzazocin-7-yl]-methanone] | 103
Cc1cnc(-c2nc3cc4c(cc3o2)C[C@H]2N(C(=O)c3ccc5nc[nH]c5c3)CC[C@]4(C)C2(C)C)cn1 [Example 313, (3H-Benzoimidazol-5-yl)-[(6R,10S)-5,6,7,8,9,10-hexahydro-10,12,12-trimethyl-2-(5-methyl-pyrazin-2-yl)-6,10-methano-oxazolo[4,5-i][3]benzazocin-7-yl]-methanone] | 61
CC(O)c1cccc(C(=O)N2CC[C@@]3(C)c4ccccc4C[C@@H]2C3(C)C)c1 (stereo partly drawn) [Example 314, [3-(1-Hydroxy-ethyl)-phenyl]-[(2R,6S)-6,11,11-trimethyl-1,2,5,6-tetrahydro-4H-2,6-methano-benzo[d]azocin-3-yl]-methanone] | 162
Cc1ncc(-c2ccc3c(c2)[C@]2(C)CCN(C(=O)c4ccc5nc[nH]c5c4)[C@H](C3)[C@H]2C)cn1 [Example 315, (3H-Benzoimidazol-5-yl)-[(2R,6R,11S)-6,11-dimethyl-8-(2-methyl-pyrimidin-5-yl)-1,2,5,6-tetrahydro-4H-2,6-methano-benzo[d]azocin-3-yl]-methanone] | 61
CC12CCN(C(=O)c3ccc4nc[nH]c4c3)C(Cc3cccc(C#N)c31)C2(C)C (stereo not shown) [Example 316, 3-(1H-Benzoimidazole-5-carbonyl)-6,11,11-trimethyl-1,2,3,4,5,6-hexahydro-2,6-methano-benzo[d]azocine-7-carbonitrile] | 32
CC(C)(O)c1cccc(C(=O)N2CC[C@@]3(C)c4ccccc4C[C@@H]2C3(C)C)c1 [Example 317, [3-(1-Hydroxy-1-methyl-ethyl)-phenyl]-[(2R,6S)-6,11,11-trimethyl-1,2,5,6-tetrahydro-4H-2,6-methano-benzo[d]azocin-3-yl]-methanone] | 217
CC1(C)[C@H]2Cc3ccccc3[C@]1(C)CCN2C(=O)c1ccc(O)cc1 [Example 318, (4-Hydroxy-phenyl)-[(2R,6S)-6,11,11-trimethyl-1,2,5,6-tetrahydro-4H-2,6-methano-benzo[d]azocin-3-yl]-methanone] | 31
CC1(C)[C@H]2Cc3ccccc3[C@]1(C)CCN2C(=O)c1cccc(O)c1 [Example 319, (3-Hydroxy-phenyl)-[(2R,6S)-6,11,11-trimethyl-1,2,5,6-tetrahydro-4H-2,6-methano-benzo[d]azocin-3-yl]-methanone] | 446
CC1(C)[C@H]2Cc3ccccc3[C@]1(C)CCN2C(=O)c1cc(Cl)c(O)c(Cl)c1 [Example 320, (3,5-Dichloro-4-hydroxy-phenyl)-[(2R,6S)-6,11,11-trimethyl-1,2,5,6-tetrahydro-4H-2,6-methano-benzo[d]azocin-3-yl]-methanone] | 165
COc1c(F)cc(C(=O)N2CC[C@@]3(C)c4ccccc4C[C@@H]2C3(C)C)cc1F [Example 331, (3,5-Difluoro-4-methoxy-phenyl)-[(2R,6S)-6,11,11-trimethyl-1,2,5,6-tetrahydro-4H-2,6-methano-benzo[d]azocin-3-yl]-methanone] | 439
Cc1nnc(-c2ccc3c(c2)[C@]2(C)CCN(C(=O)c4ccc5nc[nH]c5c4)[C@H](C3)[C@H]2C)o1 [Example 332, (3H-Benzoimidazol-5-yl)-[(2R,6R,11S)-6,11-dimethyl-8-(5-methyl-[1,3,4]oxadiazol-2-yl)-1,2,5,6-tetrahydro-4H-2,6-methano-benzo[d]azocin-3-yl]-methanone] | 64

same assay, conditions: 1 hour at 37° C., pH 6.0, NADPH 200 μM, cortisone 80 nM, inhibition relative to carbenoxolone signal, read-out: 11β-HSD IC50

Compound | IC50 [nM]
COc1ccc2c(c1)C1CCN(C(=O)c3ccc4nc[nH]c4c3)C1C2 (stereo not shown) [Example 321, (3H-Benzoimidazol-5-yl)-(5-methoxy-3,3a,8,8a-tetrahydro-2H-1-aza-cyclopenta[a]inden-1-yl)-methanone] | 1170
CC12CC(Cc3ccccc31)N(C(=O)c1ccc3nc[nH]c3c1)C2 (stereo not shown) [Example 323, (3H-Benzoimidazol-5-yl)-(1-methyl-10-aza-tricyclo[7.2.1.0*2,7*]dodeca-2,4,6-trien-10-yl)-methanone] | 620
CC12CCCN(C(=O)c3ccc4nc[nH]c4c3)C(Cc3ccccc31)C2 (stereo not shown) [Example 324, (3H-Benzoimidazol-5-yl)-(1-methyl-10-aza-tricyclo[7.4.1.0*2,7*]tetradeca-2,4,6-trien-10-yl)-methanone] | 121
CC1C2c3ccc(O)cc3CC2N(C(=O)c2ccc3nc[nH]c3c2)CC1(C)C (stereo not shown) [Example 330, (3H-Benzoimidazol-5-yl)-(7-hydroxy-3,3,4-trimethyl-2,3,4,4a,9,9a-hexahydro-indeno[2,1-b]pyridin-1-yl)-methanone] | 44
